The subject of assay [1] is dorsal excisional wounds. Nature of the assay: Dorsal excisional wounding, wound base injected with Verteporfin: gross, histology, immunofluorescence. Type of assay: in vivo, mouse. From the text: P60 En-1^Cre;R26^mTmG, En-1^Cre;Ai6, and En-1^Cre-ERT;Ai6 mice were used for cutaneous wound healing experiments in accordance with well-established protocols. Briefly, mice were anesthetized (2% isofiuorane), their dorsal hair was removed with depilatory cream, and the dorsal skin was prepped with alcohol wipes. Next, two 6 mm full-thickness circular wounds were placed through the panniculus carnosus on the dorsum of each animal at the same level, roughly 6 mm below the ears and 4 mm lateral to the midline. The wounds were then stented open by 12 mm diameter silicone rings secured around the wound perimeter with glue and 8 simple interrupted Ethilon 6-0 sutures (Ethicon). For mice receiving mechanotransduction inhibitor, 30 μL of Verteporfin (1 mg/mL) was injected locally into the wound base; PBS was injected into wounds for vehicle controls. Post-operative analgesia was accomplished with buprenorphine 0.05 mg/kg every four hours for three doses, and then as indicated. Dressings were changed every other day under anesthesia. All wounds were fully re-epithelialized by post-operative day (POD) 14, at which time the wound and surrounding skin (used as unwounded control) were harvested and processed for histology. Induction of En-1^Cre-ERT;Ai6 mice was achieved by 5 consecutive days of intraperitoneal tamoxifen injections (90% corn oil/ethanol v/v; 200 mg/kg body weight) prior to wounding. In all experiments, a minimum of 3 mice with 2 wounds each was used for each treatment group.
Tissues were fixed in 2% paraformaldehyde for 16 h at 4° C. Samples were prepared for embedding by soaking in 30% sucrose in PBS for 1 week at 4° C. Samples were then removed from the sucrose solution, and tissue blocks were prepared by embedding in Tissue Tek U.C.T. (Sakura Finetek) under dry ice to achieve rapid freezing. Frozen blocks were mounted on a Thermo Scientific CryoStar NX70 cryostat, and 10 μm-thick sections were transferred to SuperfrostfPlus adhesive slides (Fisher). For hematoxylin and eosin staining, standard protocols were used with no modifications. For immunofluorescent staining, slides were blocked for 1 hr with Power Block (Biogenex) prior to addition of the following primary antibodies: Abeam ab34710 (anti-collagen type I), Abeam ab28340 (anti-CD26), Invitrogen MA5-15915 (anti-Dlk1), Abeam ab51317 (anti-Scat), Abeam ab5694 (anti-α-SMA), Santa Cruz Biotechnology sc-101199 (anti-YAP), Abeam ab7800 (anti-CK14), and Abeam ab52625 (anti-CK19). Slides were then incubated for 1 h with Alexa Fluor 568 or Alexa Fluor 647-conjugated anti-rabbit, anti-rat, or anti-mouse antibodies (Invitrogen). Finally, slides were mounted in Fluoromount-G mounting solution with DAPI (Thermo Fisher). Brightfield images were acquired with a Leica DMI4000B microscope, while fluorescent images were acquired with a Leica DM6000 SP5 upright confocal microscope.
Given that En-1 activation was associated with adoption of a pro-fibrotic phenotype, and that YAP inhibition prevented En-1 activation in vitro, whether YAP inhibition could also block En-1 activation in vivo to reduce scarring in a mouse wounding model was assessed. Adult En-1^Cre;R26^mTmG mice were wounded, and the POD 0 wounds were treated by injecting the wound base with either PBS (control) or Verteporfin (1 mg/mL). […] Wounds were harvested for gross and histological examination at POD 14, 30, or 90. As expected, control wounds healed in a typical scarring fashion (FIG. 4, A middle row). Even after 90 days, the wound site remained bare, forming a distinct region of pale scar tissue in which no hair regrowth occurred (FIG. 4, A middle row, right image). […] This was a striking result, as a hallmark of adult mammalian (scarring) wound healing is a complete lack of regeneration of secondary appendages (e.g., hair follicles, sweat glands), as exemplified by the bare area that remained following control wound healing. […]

Assay [2] relates to dorsal excisional wounds. In words: Tensile strength testing (Instron) of healed wounds. It counts as in vivo, mouse. Here is the method: Tensile strength tests for unwounded skin (N=7) and PBS (N=5) or Verteporfin-treated (N=4) wounds in P60 C57BL/6 mice were conducted at POD 30 using an Instron 5565 equipped with a 100 N load cell. Dorsal skin was harvested and cut into 4 mm-by-15 mm strips. Tissue strips were then secured using custom grips with the scar positioned equidistant to each grip edge and preloaded to a force of 0.02 N to remove slack before the length of the tissue was measured using digital calipers; the width and thickness of the strips were also re-measured to confirm accurate dimensions. Finally, the skin was subjected to an extension test to failure, defined by a sharp decrease in stress with increasing strain, at a rate of 1%/s. The wound breaking force, or yield force, was determined at the maximal force before the tissue entered plastic deformation and eventual failure. True strain was calculated as the change in length divided by the original gauge length, and true stress was calculated as the force divided by the original cross-sectional area. The Young's Modulus was calculated by taking a least-squares regression of the slope during the linear, elastic portion of the stress-strain curve (R^2>0.99). […] In order to characterize the physical properties of Verteporfin-treated wounds, tensile testing was performed on unwounded skin and PBS- or Verteporfin-treated wounds after 30 days of healing.

Setting [3] is: 30 days, relative to control wounds.
[4] abbreviates: four treatments (POD 0, 4, 8 and 12).

On to verteporfin, for which, in the assay on dorsal excisional wounds [1] (14 days, vs control wounds), the Fibronectin staining entry was “comparatively stronger staining for fibronectin” and the col-I staining result is given as “substantially reduced col-I staining”. Further, in the assay with dorsal excisional wounds [1] (30 days), the “Distribution of Dlk1+ cells” value is listed as “present throughout the dermis”. Further, in the assay with dorsal excisional wounds [1] (setting [3]), the CD26 staining entry is listed as “decreased staining for CD26” and the “Number of EPFs in wounds” value is recorded as “significantly fewer EPFs”. The “Chains of YAP+ cells” value in the assay with dorsal excisional wounds [1] (30 days, vs control wounds) is listed as “markedly shorter”. In the assay with dorsal excisional wounds [1] (POD 90), the “IF staining of appendages for cytokeratins 14 and 19 (hair follicle and sweat gland markers)” value was “positive IF staining”; the “Oil Red O lipid staining (sebaceous glands)” value is recorded as “positive lipid staining”. For the same substance, the “Regrowth of dermal appendages” value with dorsal excisional wounds [1] (POD 90 (FIG. 4, C)) is “regrowth of hair follicles and other dermal appendages”. For the same substance, the “Fibroblast lineage content of wounds (ENFs vs EPFs)” value with dorsal excisional wounds [1] (after 14 days) is on record as “almost exclusively ENFs”. For the same substance, the “H&E histology: dermal appendage structures” value in the assay with dorsal excisional wounds [1] (by 1 and 3 months) is reported as “numerous structures morphologically resembling hair follicles or sweat glands”. Moreover, in the assay on dorsal excisional wounds [1] (by 2 weeks), the “H&E histology: fibrosis and cellularity” value is “reduced fibrosis and increased cellularity”. Besides, in the assay on dorsal excisional wounds [1] (setting [4]), the Hair regrowth entry was “grossly reduced” and the Wound closure entry is on record as “delayed”. For the same substance, the “Hair growth within healed wound” value in the assay with dorsal excisional wounds [1] (single dose POD 0, by 30 days) is “substantial hair growth within the healed wound”. Further, the “Gross appearance of healed wound” value in the assay on dorsal excisional wounds [1] (single dose POD 0, by 90 days) is on record as “grossly indistinguishable from unwounded skin”. Further, the Wound closure rate entry with dorsal excisional wounds [1] (single injection 1 mg/mL into wound base at POD 0, vs PBS) was “did not significantly affect wound closure rate”. Besides, in the assay on dorsal excisional wounds [1] (three months of healing), the “Number of EPFs in wounds” value was “dramatically reduced numbers of EPFs”, the “YAP+ cells” value is on record as “rare YAP^+ cells” and the “α-SMA+ cells” value was “virtually no α-SMA^+ cells”. In the assay with dorsal excisional wounds [1] (two doses (POD 0 and 4)), the “Wound closure rates, gross appearance and ECM features” value is “comparable to those of wounds treated with single Verteporfin dose”. Further, the “Force-displacement and stress-strain curves” value in the assay on dorsal excisional wounds [2] (after 1 month of healing) is “more closely resembled unwounded skin than scar”. In the assay on dorsal excisional wounds [2] (after 30 days of healing, vs unwounded skin), the “Tensile strength (wound breaking force and Young's modulus)” value is “did not significantly differ from that of unwounded skin”.

These data come from US20220313658A1, “YAP Inhibition for Wound Healing” (The Board of Trustees of the Leland Stanford Junior …, priority 2019, published 2022).
